Assay results from patent US9249097B2, “3-aminocarbazole compound, pharmaceutical composition containing it and preparation method therefor” (AZIENDE CHIM. RIUN. ANG. FRANC. A.C.R.A.F. S.p.A., priority 2008, dated 2016).

Tests used:
[1] = Metabolic stability in rat hepatic microsomes; conditions: 1 μM
Description: (§1) This test allows evaluation of the metabolic stability of the compounds of the invention and of the comparative compounds in rats and in man.
(§2) The compounds to be analysed, at a final concentration of 0 and 1 μM, were placed in a suspension containing the pool of microsomes at a final concentration of 0.5 mg/mL in a final volume of 200 μL, in 96-well plates. The test was standardized with phosphate buffer (75 mM, pH 7.4) and with the NADPH regenerating system (MgCl2: 3.3 mM; G6P: 3.3 mM; G6PD: 0.4 U/mL; NADP+: 1.3 mM). […] The samples were incubated at 37° C. in a humidified incubator. At time 0 and after 60 minutes, 100 μL of acetonitrile containing the internal standard (0.2 μM of metoprolol and 0.4 μM of diclofenac) were added to stop the reaction.
(§3) The samples were centrifuged before analysis. The HPLC/MS/MS analysis was performed using an electrospray ion source in positive ionization and SRM (Single Reaction Mode). The chromatographic conditions entail the use of an XDB-C18 column (2.1×50 mm, Agilent) and a gradient from 5% to 91% of acetonitrile in water containing 0.1% formic acid (total runtime equal to 6 minutes); the flow rate was 0.5 ml/minute.
(§4) The areas of the peaks for the test compounds were integrated and the results expressed as the analyte area/internal standard (PAR) area ratio. For each time, two samples were analysed and the mean value calculated. The percentage of the value of remaining compound was calculated as: % unmetabolized compound=100*(mean PARTfinal/mean PART0).

[2] = Metabolic stability in human hepatic microsomes; conditions: 1 μM
Description: as §1, §2, §3, §4

production of PGE2 = experiment: Inhibition of PGE2 production in IL-1β-stimulated A549 cells (EIA); assay type: cell-based; conditions: Homo sapiens, IL-1β 1 ng/ml, 22 hours
Source text: (§5) This test allows evaluation of the inhibitory capacity on the production of the PGE2 and the selectivity relative to the production of the PGF2α.
(§6) The cell line A549, human pulmonary adenocarcinoma, was used, which is particularly sensitive to stimulation with pro-inflammatory cytokines, for instance IL-1β, and, in response to this stimulation, is particularly active in the production and release of two prostanoids: PGE2 and PGF2α (Thoren S. Jakobsson P-J, 2000).
(§7) The cells were stimulated with IL-1β (1 ng/ml) and simultaneously treated with the test compound for 22 hours in an appropriate culture medium (DMEM—Dulbecco's Modified Eagle's Medium) supplemented with 5% foetal calf serum and L-glutamine (4 mM final) in an incubator at 37° C. and at a CO2 concentration of 5%.
(§8) After the incubation, the amount of PGE2 and PGF2α produced and released into the supernatant were assayed using an EIA kit (produced and sold by Cayman Chemicals, Ann Arbor, Mich., USA).
(§9) The comparative compound used was indomethacin at a concentration of 10 nM (Sigma-Aldrich), a non-steroidal anti-inflammatory drug that inhibits in equal measure both PGE2 and PGF2α.
(§10) The results, expressed as the IC50 values, i.e. as the concentration of compound that inhibits 50% of the production of PGE2 and of PGF2α relative to the cells that have been stimulated, but not treated with the same compound, are given in Table 2. The inactivity or the reduced activity of the compound on the biosynthesis of PGF2α is an indication of selectivity towards the production of PGE2 and thus of selective inhibition of mPGES-1.

production of PGF2α = experiment: Inhibition of PGF2α production in IL-1β-stimulated A549 cells (EIA); assay type: cell-based; conditions: Homo sapiens, IL-1β 1 ng/ml, 22 hours
Source text: as §5, §6, §7, §8, §9, §10

in vitro = conditions: human, Caco-2, pH 7.4
Description: This test allows evaluation of the amount absorbed by the intestinal barrier of the compounds of the invention and of the comparative compounds using the Caco-2 cell line as an in vitro model of intestinal barrier. The permeability test on Caco-2 cells represents an in vitro system approved for predicting and estimating the in vivo intestinal absorption of a drug. When the Caco-2 cells are cultured on a porous filter for about 21 days, they have the capacity to differentiate into enterocytes.
The compounds undergoing the test were diluted from a 10 mM stock solution in HBSS to a final concentration of 10 μM. The system consisted of a confluent cellular monolayer in culture for 21-28 days.
Each compound was tested in triplicate, bidirectionally, at pH 7.4, from the apical to the basolateral compartment (A→B) and from the basolateral to the apical compartment (B→A).
The samples collected at the given time were analysed by HPLC-MS/MS, using an electrospray ion source in positive ionization and SRM (Single Reaction Mode). The chromatographic conditions entailed the use of an XDB-C18 column (2.1×50 mm, Agilent) with a gradient from 5% to 91% of acetonitrile in water containing 0.1% formic acid (total runtime equal to 6.5 minutes) and a flow rate of 0.5 ml/minute. Metoprolol was used as the internal standard.
The concentration data were used to calculate the apparent permeability values (Papp), and the mean and standard deviation of the Papp were calculated.
The flux ratio was calculated as Papp(B→A)/Papp(A→B). The recovery percentage was calculated as: (amount in the receiving compartment+amount in the donor compartment)/nominal amount
The area of the peaks of the test compounds were integrated and the results were expressed as the analyte area/internal standard area ratio and corrected for the dilution factor used during the preparation of the sample. The apparent permeability coefficients were calculated using the following equation: […]
in which: • VA volume in the receiving well (0.25 mL for the test from A→B, 0.075 mL for the test from B→A) • Area area of the membrane surface (0.11 cm^2) • Time total transport time (3600 seconds)

[3] = In vivo bioavailability, oral cassette dosing; conditions: oral 5 mg/kg; for Cmax / Tmax / AUC(0-t): plasma; for AUC(0-t): first seven hours, read-out: AUC0-7
Description: This test allowed evaluation of the in vivo bioavailability of the compounds of the invention, thus making it possible to evaluate and compare the pharmacokinetic profile of the test compounds.
The tests were performed using the cassette method, i.e. by administering orally several products simultaneously to the same animal, at a dose of 5 mg/kg. The products were suspended in methylcellulose (MTC). The treated animals were catheterized for the serial collection of blood samples performed by means of an automatic sampling system. The plasmatic concentrations of the products were measured by HPLC/MS/MS. The profiles of the plasmatic concentrations over time made it possible to evaluate the relative bioavailability of the test products in terms of rate (tmax and Cmax) and […] (AUC). The slope of the curve in the end portion also allowed a comparative evaluation of the rate of elimination of the compounds from the plasma, the slower the rate, the lower the slope. Three animals were treated for each combination of compounds.
The results, expressed as the Cmax, i.e. as the maximum concentration of drug reached in the plasma, Tmax, i.e. the time required to reach the maximum drug concentration in the plasma, and AUC0-7, i.e. the area under the curve of the plasmatic concentrations of drug over time, measured in the first seven hours after administration, are given in Table 5.

mice = experiment: Acetic acid-induced writhing in mice; assay type: in vivo; conditions: for No. of writhes: 20 minutes after acetic acid; for % of inhibition: writhes vs vehicle
Description: The test compound was evaluated in the model of acetic acid-induced writhing in mice (Stock J. L. et al., J. Clin. Inv. 2001, 107: 325-331). This test allows evaluation of the antinociceptive activity of the compounds of the invention in a model of inflammatory pain.
Female CD-1 mice weighing 25-30 g were used for the test. The animals were treated intraperitoneally with the test compound (0.1-10 mg/kg) suspended in methylcellulose (MTC). The control animals were treated with the vehicle alone (MTC) via the same route.
Half an hour after the treatment, an intraperitoneal injection of acetic acid (0.7% v/v in physiological saline, 16 μl/g of body weight) was given to the animals to induce inflammatory pain and to check the effects of the test compound on the nociceptive response.
Immediately after the administration of acetic acid and for the following 20 minutes the number of writhes was measured, which represents the parameter for evaluation of the nociceptive response.

[4] = Sprague-Dawley, rat, microsomes, 1 h, pH 7.4
[5] = microsomes 0.5 mg/mL, 60 minutes, 37° C.

CC(=O)CC(c1ccccc1)c1c(O)c2ccccc2oc1=O (stereo not drawn) [Warfarin, warfarin, reference compound]
% unmetabolized compound, Rat [1, 4]: 97% | % unmetabolized compound, Man ([2]; human, microsomes, 1 h, pH 7.4): 103%

CC(=O)Cn1c2ccccc2c2cc(NC(=O)c3ccccc3C(F)(F)F)ccc21 [Compound 4, N-[9-(2-oxopropyl)-9H-carbazol-3-yl]-2-(trifluoromethyl)benzamide]
IC50 (production of PGE2): 5600 nM | IC50 (production of PGF2α): > 100000 nM | % unmetabolized compound, Rat [1, 4]: 58% | % unmetabolized compound, Man ([2]; human, microsomes, 1 h, pH 7.4): 7% | Papp at 3600 seconds, 10 μM (in vitro): > 20 ×10⁻⁶ cm/s | melting point: 223 to 226 °C

C[C@]12CC[C@H]3[C@@H](CCC4=CC(=O)CC[C@@]43C)[C@@H]1CC[C@@H]2O [Testosterone, testosterone, reference compound]
% unmetabolized compound, Rat [1, 5]: 0% | % unmetabolized compound, Man [2, 5]: 27%

CC(C)(O)Cn1c2ccccc2c2cc(NC(=O)c3ccccc3C(F)(F)F)ccc21 [Compound 2, N-[9-(2-hydroxy-2-methylpropyl)-9H-carbazol-3-yl]-2-(trifluoro-methyl)benzamide]
IC50 (production of PGE2): 2300 nM | IC50 (production of PGF2α): > 100000 nM | % unmetabolized compound, Rat [1, 4]: 68% | % unmetabolized compound, Man ([2]; human, microsomes, 1 h, pH 7.4): 82% | Papp at 3600 seconds, 10 μM (in vitro): > 20 ×10⁻⁶ cm/s | bioavailability / absorption in words [3]: good bioavailability characteristics | Cmax [3]: 984 ng/mL | Tmax [3]: 4.3 h | AUC(0-t) [3]: 5400 ng·h/mL | melting point: 179 to 181 °C

CC(C)(O)CCn1c2ccccc2c2cc(NC(=O)c3ccccc3C(F)(F)F)ccc21 [Compound 3, N-[9-(3-hydroxy-3-methylbutyl)-9H-carbazol-3-yl]-2-(trifluoromethyl)benzamide]
IC50 (production of PGE2): 1400 nM | IC50 (production of PGF2α): > 100000 nM | % unmetabolized compound, Rat [1, 4]: 65% | % unmetabolized compound, Man ([2]; human, microsomes, 1 h, pH 7.4): 77% | Papp at 3600 seconds, 10 μM (in vitro): > 20 ×10⁻⁶ cm/s | bioavailability / absorption in words [3]: good bioavailability characteristics | Cmax [3]: 457 ng/mL | Tmax [3]: 1.8 h | AUC(0-t) [3]: 2670 ng·h/mL | melting point: 188 to 189 °C

COc1ccc2c(c1)c(CC(=O)O)c(C)n2C(=O)c1ccc(Cl)cc1 [Indomethacin, indomethacin, reference compound]
IC50 (production of PGE2): 5 nM | IC50 (production of PGF2α): 3 nM

CC(C)NCC(O)COc1cccc2ccccc12 (stereo not drawn) [Propranolol, propranolol, reference compound]
Papp at 3600 seconds, 10 μM (in vitro): > 20 ×10⁻⁶ cm/s

O=C(Nc1ccc2c(c1)c1ccccc1n2CCO)c1ccccc1Cl [Compound 5, 2-chloro-N-[9-(2-hydroxyethyl)-9H-carbazol-3-yl]benzamide]
% unmetabolized compound, Rat [1, 4]: 63% | % unmetabolized compound, Man ([2]; human, microsomes, 1 h, pH 7.4): 76% | Papp at 3600 seconds, 10 μM (in vitro): > 20 ×10⁻⁶ cm/s | melting point: 168 to 169 °C

C[C@H]1O[C@@H](O[C@H]2[C@@H](O)C[C@H](O[C@H]3[C@@H](O)C[C@H](O[C@H]4CC[C@@]5(C)[C@H](CC[C@@H]6[C@@H]5C[C@@H](O)[C@]5(C)[C@@H](C7=CC(=O)OC7)CC[C@]65O)C4)O[C@@H]3C)O[C@@H]2C)C[C@H](O)[C@@H]1O [Digoxin, digoxin, reference compound]
Papp at 3600 seconds, 10 μM (in vitro): < 2 ×10⁻⁶ cm/s

O=C(Nc1ccc2c(c1)c1ccccc1n2CCO)c1ccccc1C(F)(F)F [Compound 1, N-[9-(2-hydroxyethyl)-9H-carbazol-3-yl]-2-(trifluoromethyl)benzamide]
IC50 (production of PGE2): 2900 nM | IC50 (production of PGF2α): > 100000 nM | No. of writhes (mice; 0.1 mg/kg intraperitoneally): 38.4 ± 3.99 | % of inhibition (mice; 0.1 mg/kg intraperitoneally): 21% | No. of writhes (mice; 1 mg/kg intraperitoneally): 31.5 ± 5.72 | % of inhibition (mice; 1 mg/kg intraperitoneally): 35% | No. of writhes (mice; 10 mg/kg intraperitoneally): 12.8 ± 2.46 | % of inhibition (mice; 10 mg/kg intraperitoneally): 74% | % unmetabolized compound, Rat [1, 4]: 58% | % unmetabolized compound, Man ([2]; human, microsomes, 1 h, pH 7.4): 81% | Papp at 3600 seconds, 10 μM (in vitro): > 20 ×10⁻⁶ cm/s | bioavailability / absorption in words [3]: good bioavailability characteristics | Cmax [3]: 1200 ng/mL | Tmax [3]: 1.5 h | AUC(0-t) [3]: 5750 ng·h/mL | melting point: 176 to 177 °C

CC(C)(O)CCn1c2ccccc2c2cc(NC(=O)c3ccccc3Cl)ccc21 [Compound 6, 2-chloro-N-[9-(3-hydroxy-3-methylbutyl)-9H-carbazol-3-yl]benzamide]
IC50 (production of PGE2): 600 nM | IC50 (production of PGF2α): > 100000 nM | % unmetabolized compound, Rat [1, 4]: 74% | % unmetabolized compound, Man ([2]; human, microsomes, 1 h, pH 7.4): 65% | Papp at 3600 seconds, 10 μM (in vitro): > 20 ×10⁻⁶ cm/s | melting point: 120 to 124 °C
